The values that follow are results of earlier work, collected in patent US20210353650A1 (priority 2020, published 2021).

In series [1] the test system is Vero E6 cells.
The test system of series [2] is Vero African green monkey kidney epithelial cells. As to conditions: Vero cells used in the CPE assay; 2012 study.
For series [3] the following is noted: nonhuman primates, daily administration of 10 mg/kg; EMA 2020.

Take `CCC(CC)COC(=O)[C@H](C)N[P@](=O)(OC[C@H]1O[C@@](C#N)(c2ccc3c(N)ncnn23)[C@H](O)[C@@H]1O)Oc1ccccc1` [Remdesivir]: in series [1], the cytotoxic concentration is greater than 100 mM. The “cytotoxicity toward host cells” value in series [2] is reported as “without causing cytotoxicity”. Further, the “intracellular levels of the triphosphate form” value in series [3] is listed as “sustained intracellular levels”.
